Source: US9168266B2, “Hybrid diazeniumdiolated compounds, pharmaceutical compositions, and method of treating cancer” (The United States of America, as represented by the …, priority 2011, dated 2015)
Where two headings read alike, the source gives them in different places.

Assays:
PARP enzyme = target: T1, PARP enzyme (Homo sapiens, UniProt P09874); experiment: PARP enzyme inhibition, HT Universal Colorimetric PARP assay kit with GSH; assay type: biochemical; settings: GSH 1 mM added to activate prodrugs; absorbance 450 nm
T1 construct: purchased Trevigen, Gaithersburg, Md
Description: PARP enzyme inhibition was measured using HT Universal Colorimetric 96-well PARP assay kit (Trevigen, Gaithersburg, Md.), according to manufacturer's protocol with small modifications. GSH (1 mM final concentration) was added to the wells containing inhibitors, to allow activation of the prodrugs. The absorbance at 450 nm was measured.

A549 = experiment: MTT cell proliferation assay; assay type: cell-based; settings: A549, 72 h
Description: (§1) Cell lines were obtained from the American Type Culture Collection (Manassas, Va.) and cultured according to the supplier's protocol. For proliferation assays cells were seeded at 1×10^4 per well (H1693, H322M, H1703, H1944, H1355, H2122, H441, H1568) or 5×10^3 per well (H460, H1792, A549, H2023, H2030, H23) in 96-well plates and allowed to adhere for 24 h. Compounds were prepared as 10 mM stock solutions in DMSO. Increasing drug concentrations in 10 μl of PBS were added to 100 μl of the culture medium for 72 h. MTT assay (Promega, Madison, Wis.) was performed according to the manufacturer's protocol. Each concentration was represented in six repeats, and the screening was performed as at least two independent experiments. IC50 values were calculated by using Sigma Plot software (Systat Software, Inc., San Jose, Calif.).

H1355 = experiment: MTT cell proliferation assay; assay type: cell-based
Description: as §1

H1568 = experiment: MTT cell proliferation assay; assay type: cell-based
Description: as §1

H1693 = experiment: MTT cell proliferation assay; assay type: cell-based
Description: as §1

H1703 = experiment: MTT cell proliferation assay; assay type: cell-based
Description: as §1

H1792 = experiment: MTT cell proliferation assay; assay type: cell-based
Description: as §1

H1944 = experiment: MTT cell proliferation assay; assay type: cell-based
Description: as §1

H2023 = experiment: MTT cell proliferation assay; assay type: cell-based
Description: as §1

H2030 = experiment: MTT cell proliferation assay; assay type: cell-based
Description: as §1

H2122 = experiment: MTT cell proliferation assay; assay type: cell-based
Description: as §1

H23 = experiment: MTT cell proliferation assay; assay type: cell-based
Description: as §1

H322M = experiment: MTT cell proliferation assay; assay type: cell-based; settings: 72 h
Description: as §1

H441 = experiment: MTT cell proliferation assay; assay type: cell-based
Description: as §1

H460 = experiment: MTT cell proliferation assay; assay type: cell-based, human
Description: as §1

[1] = tested on: H1703 lung adenocarcinoma cells; experiment: Intracellular NO release, DAF-FM diacetate fluorescence; assay type: cell-based; settings: 10 μM; for intracellular NO release (DAF fluorescence): 30 min, H1703 cells; for cell permeability: inferred from intracellular NO release
Description: The intracellular level of nitric oxide after treatment with the compounds JS-59-183 or JS-60-178 was quantified by using the NO-sensitive fluorophore 4-amino-5-methylamino-2,7 difluorofluorescein (DAF-FM) diacetate (Invitrogen, Carlsbad, Calif.). Cells growing on six-well plates were loaded with 2.5 μM DAF-FM diacetate in HBSS at 37° C. and 5% CO2. After 30 min of incubation, the cells were rinsed with HBSS to remove excess probe, and compounds in fresh HBSS was added to the cells at 10 μM final concentration. After 30 min incubation, the fluorescence of the benzotriazole derivative formed on DAF-FM's reaction with aerobic NO was analyzed by using a PerkinElmer Life and Analytical Sciences LS50B luminescence spectrometer with the excitation source at 495 nm and emission at 515 nm. All experiments were performed at least three times, each time at least in triplicate.

[2] = tested on: H1703 lung adenocarcinoma cells; experiment: Intracellular ROS/RNS level, DCF fluorescence; assay type: cell-based; settings: 10 μM, 60 min, versus DMSO
Description: Intracellular level of reactive oxygen/nitrogen species was quantified by the oxidation of the ROS/RNS-sensitive fluorophore 5-(and-6)-chloromethyl-2′,7′-dichlorodihydrofluorescein diacetate (Invitrogen, Carlsbad, Calif.). Cells growing on six-well plates (6×10^5/well) were loaded with 5 μM 5-(and-6)-chloromethyl-2′,7′-dichlorodihydrofluorescein diacetate in Hanks' balanced salt solution (HBSS) at 37° C. and 5% CO2. After 30 min of incubation, HBSS containing the probe was removed, cells were rinsed with HBSS, and 3 ml of fresh HBSS was added to each well followed by the addition of compounds (10 μM) or DMSO as a control. After 60 min, the cells were collected by scraping in HBSS, and 2′,7′-dichlorofluorescein (DCF) fluorescence was measured by using a PerkinElmer Life and Analytical Sciences (Waltham, Mass.) LS50B luminescence spectrometer with the excitation source at 488 nm and emission at 530 nm.

NSCLC cells [3] = experiment: Western blot for cleaved caspase 7 (apoptosis); assay type: cell-based; settings: 10 μm, DMSO control
Description: (§2) The alkaline comet assay was performed as described (Romanowska et al., Free Radical Biol. Med., 43: 1145-1155 (2007)). Western blot analysis was performed as described previously (Maciag et al., J. Pharmacol. Exp. Ther., 336: 313-320 (2011)). Primary antibodies for cleaved caspase 7 (Cell Signaling Technology, Danvers, Mass.) were used.

NSCLC cell lines = experiment: MTT cell proliferation assay, panel summary; assay type: cell-based; settings: range over the NSCLC cell lines, 72 h, read-out: IC50 for growth inhibition across NSCLC cell lines
Description: as §1

NSCLC cells [4] = experiment: Alkaline comet assay (DNA strand breaks); assay type: cell-based
Description: as §2

T1 sequence (P09874 whole entry): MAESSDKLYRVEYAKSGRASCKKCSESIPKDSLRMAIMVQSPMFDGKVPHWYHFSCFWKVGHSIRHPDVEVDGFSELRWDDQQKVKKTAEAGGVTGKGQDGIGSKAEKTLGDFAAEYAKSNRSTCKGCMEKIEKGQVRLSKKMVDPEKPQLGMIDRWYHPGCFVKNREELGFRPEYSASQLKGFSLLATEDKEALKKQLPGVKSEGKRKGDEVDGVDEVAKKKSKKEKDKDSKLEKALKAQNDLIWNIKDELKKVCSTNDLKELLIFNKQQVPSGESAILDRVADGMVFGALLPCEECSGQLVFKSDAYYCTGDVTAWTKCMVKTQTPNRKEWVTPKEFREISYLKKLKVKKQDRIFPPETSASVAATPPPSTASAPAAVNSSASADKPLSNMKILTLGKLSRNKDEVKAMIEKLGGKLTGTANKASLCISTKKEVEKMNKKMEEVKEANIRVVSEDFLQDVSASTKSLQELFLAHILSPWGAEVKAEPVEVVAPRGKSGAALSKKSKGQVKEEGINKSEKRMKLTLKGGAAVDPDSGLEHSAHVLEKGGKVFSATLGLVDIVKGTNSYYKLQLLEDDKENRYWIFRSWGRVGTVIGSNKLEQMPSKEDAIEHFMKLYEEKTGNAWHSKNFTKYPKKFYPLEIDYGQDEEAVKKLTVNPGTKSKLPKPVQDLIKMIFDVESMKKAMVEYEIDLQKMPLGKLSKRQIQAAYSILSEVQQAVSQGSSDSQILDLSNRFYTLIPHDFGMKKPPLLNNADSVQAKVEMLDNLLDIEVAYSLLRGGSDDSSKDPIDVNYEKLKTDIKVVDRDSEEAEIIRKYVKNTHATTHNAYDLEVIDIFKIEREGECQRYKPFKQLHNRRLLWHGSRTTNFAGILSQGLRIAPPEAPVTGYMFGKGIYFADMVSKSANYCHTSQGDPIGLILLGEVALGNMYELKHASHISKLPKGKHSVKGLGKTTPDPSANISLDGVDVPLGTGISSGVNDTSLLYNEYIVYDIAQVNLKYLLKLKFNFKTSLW

SMILES	IC50 (PARP enzyme)	TGI (total growth inhibition) (A549)	TGI (total growth inhibition) (H1355; H1355, 72 h)	TGI (total growth inhibition) (H1568; H1568, 72 h)	TGI (total growth inhibition) (H1693; H1693, 72 h)	TGI (total growth inhibition) (H1703; H1703, 72 h)	TGI (total growth inhibition) (H1792; H1792, 72 h)	TGI (total growth inhibition) (H1944; H1944, 72 h)	TGI (total growth inhibition) (H2023; H2023, 72 h, MTT)	TGI (total growth inhibition) (H2030; H2030, 72 h)	TGI (total growth inhibition) (H2122; H2122, 72 h)	TGI (total growth inhibition) (H23; H23, 72 h, MTT)	TGI (total growth inhibition) (H322M; H322M, MTT)	TGI (total growth inhibition) (H441; H441, 72 h)	TGI (total growth inhibition) (H460; H460, 72 h)	intracellular NO release (DAF fluorescence) [1]	cell permeability [1]	ROS generation (DCF fluorescence) [2]	apoptotic signal (cleaved caspase 7) (NSCLC cells [3])	other results
O=C(c1cccc(Cc2n[nH]c(=O)c3ccccc23)c1)N1CCN([N+]([O-])=NOc2ccc([N+](=O)[O-])cc2[N+](=O)[O-])CC1 [JS-59-183, 2,4-dinitrophenyl 4-[5-[(4-oxo-3H-phthalazin-1-yl)methyl]-benzoyl]piperazine-1-yl-1-ium-1,2-diolate]	0.00825 µM	26.0 µM	23.0 µM	9.0 µM	7.3 µM	11.2 µM	20.0 µM	28.0 µM	32.5 µM	25.0 µM	25.0 µM	15.2 µM	14.0 µM	11.7 µM	24.8 µM	decompose within the cell releasing NO	cell permeable	increase in ROS generation	strong apoptotic signal	IC50 (A549): 16.8 µM; IC50 (H1355; H1355, 72 h): 11.4 µM; IC50 (H1568; H1568, 72 h): 6.5 µM; IC50 (H1693; H1693, 72 h): 5.3 µM; IC50 (H1703; H1703, 72 h): 6.8 µM; IC50 (H1792; H1792, 72 h): 14 µM; IC50 (H1944; H1944, 72 h): 14 µM; IC50 (H2023; H2023, 72 h, MTT, read-out: IC50): 19.4 µM; IC50 (H2030; H2030, 72 h): 13.8 µM; IC50 (H2122; H2122, 72 h): 11.2 µM; IC50 (H23; H23, 72 h, MTT, read-out: IC50): 7.5 µM; IC50 (H322M; H322M, MTT, read-out: IC50): 9 µM; IC50 (H441; H441, 72 h): 8.1 µM; IC50 (H460; H460, 72 h): 13.8 µM
O=C(c1cc(Cc2n[nH]c(=O)c3ccccc23)ccc1F)N1CCN([N+]([O-])=NOc2ccc([N+](=O)[O-])cc2[N+](=O)[O-])CC1 [JS-60-178, 2,4-dinitrophenyl 4-[2-fluoro-5-[(4-oxo-3H-phthalazin-1-yl)methyl]-benzoyl]piperazine-1-yl-1-ium-1,2-diolate]	0.0029 µM	22.0 µM	15.0 µM	4.0 µM	6.6 µM	6.7 µM	19.0 µM	19.0 µM	25.0 µM	15.2 µM	11.0 µM	12.3 µM	11.6 µM	6.2 µM	24.0 µM	decompose within the cell releasing NO	cell permeable	increase in ROS generation	strong apoptotic signal	IC50 (A549; Homo sapiens): 13.5 µM; IC50 (H1355; Homo sapiens, NCI-H1355, H1355, 72 h): 8.2 µM; IC50 (H1568; NCI-H1568, H1568, 72 h): 3 µM; IC50 (H1693; Homo sapiens, NCI-H1693, H1693, 72 h): 5.4 µM; IC50 (H1703; Homo sapiens, NCI-H1703, H1703, 72 h): 4.3 µM; IC50 (H1792; Homo sapiens, NCI-H1792, H1792, 72 h): 12.7 µM; IC50 (H1944; Homo sapiens, NCI-H1944, H1944, 72 h): 10.5 µM; IC50 (H2023; NCI-H2023, H2023, 72 h, MTT, read-out: IC50): 15 µM; IC50 (H2030; Homo sapiens, NCI-H2030, H2030, 72 h): 9.2 µM; IC50 (H2122; Homo sapiens, NCI-H2122, H2122, 72 h): 7.5 µM; IC50 (H23; Homo sapiens, NCI-H23, H23, 72 h, MTT, read-out: IC50): 8.4 µM; IC50 (H322M; Homo sapiens, NCI-H322M, H322M, MTT, read-out: IC50): 7.9 µM; IC50 (H441; Homo sapiens, NCI-H441, H441, 72 h): 4.5 µM; IC50 (H460; Homo sapiens, NCI-H460, H460, 72 h): 16.4 µM; IC50 (NSCLC cell lines): 3 to 20 µM; comet signal compared with Olaparib (20 μm) (NSCLC cells [4]; 5 μM, 24 hours): stronger comet signal; DNA strand break damage by Comet assay (NSCLC cells [4]; 24 hours treatment): significant DNA strand break damage
O=C(c1cc(Cc2n[nH]c(=O)c3ccccc23)ccc1F)N1CCN(C(=O)C2CC2)CC1 [Olaparib, olaparib, reference compound]		100 µM	113 µM	113 µM	65 µM		38 µM	88 µM	85 µM	117 µM	140 µM	70 µM	360 µM	84 µM	37 µM				did not trigger apoptosis	IC50 (H2023; NCI-H2023, 72 h): 20 µM; IC50 (H23; Homo sapiens, NCI-H23, 72 h): 10 µM; IC50 (H322M; Homo sapiens, NCI-H322M): 50 µM
